Here are results for four compounds from paper PMC9014415, “Repositioning of a Diaminothiazole Series Confirmed to Target the Cyclin-Dependent Kinase CRK12 for Use in the Treatment of African Animal Trypanosomiasis” (Journal of Medicinal Chemistry, 2022).

The test system of assay [1] is T. congolense. Put plainly: In vitro drug sensitivity assay, T. congolense (IL3000). It counts as cell-based. The conditions noted are these: Trypanosoma congolense; IL3000 strain. The protocol: 1.2 In vitro drug sensitivity assays - Trypanosoma congolense
EC50 values for test compounds against T. congolense (IL3000 strain) were conducted as previously described3 with minor modifications.4 Briefly, trypanosome cell densities were determined using a CASY cell counter (Schärfe) and diluted to a seeding density of 2 x 105 trypanosomes/mL. BSF trypanosomes were grown in HMI-9 (IMDM) media supplemented with 20% (v/v) bovine serum.1 Test compounds were resuspended to a final concentration of 10 mg/mL in DMSO. Assays plates were incubated at 34 °C with 5 % CO2, for a total of 69 h, prior to addition of 10 µL of Resazurin (12.5 mg in 100 mL phosphate buffered saline, Aldrich) into each well, followed by a further 3 h incubation. Absorbance was read using a SpectraMax (Gemini XS) fluorescence reader at an excitation wavelength of 536 nm and an emission wavelength of 588 nm. EC50 values were determined using SOFTmax Pro 5.2 analysis software. All experiments were conducted with technical duplicates, and at least three biological replicates. […]

In assay [2] the test system is T. vivax. Briefly: Ex vivo drug sensitivity assay, T. vivax (STIB 719/ILRAD 560). The assay is classed as cell-based. The following applies: Trypanosoma vivax. The protocol:
Test compounds were resuspended to a final concentration of 10 mg/mL in DMSO. […]
1.3 Ex vivo drug sensitivity assays - Trypanosoma vivax
Since T. vivax cannot be cultured axenically, BSF trypanosomes were harvested from an infected mouse with high parasitemia via cardiac puncture and used directly in ex vivo assays. EC50 values were determined against T, vivax (STIB 719/ ILRAD 560) as previously described3, with minor modifications. Briefly, cell densities were determined using a Neubauer chamber and then diluted to a seeding density of 4 x 105 trypanosomes / mL. BSF trypanosomes were cultured in HMI-9 (IMDM) media containing 20% (v/v) bovine serum. Assay plates were incubated at 37 °C with 5 % CO2, for a total of 45 h prior to addition 10 µL of Resazurin (12.5 mg in 100 mL phosphate buffered saline, Aldrich) into each well, followed by a further 3 h incubation. Absorbance was read using a SpectraMax (Gemini XS) fluorescence reader at an excitation wavelength of 536 nm and an emission wavelength of 588 nm. EC50 values were determined using SOFTmax Pro 5.2 analysis […]
software. […]

For another assay, the system named is L6 cells. Put plainly: Cytotoxicity assay, rat skeletal myoblasts (L6). The assay is classed as cell-based. The method, then:
1.4 Cytotoxicity assays – Rat skeletal myoblasts (L6)
The cytotoxicity of test compounds was evaluated using a rat skeletal myoblast (L6) cell line, as previously described3, but with minor modifications. Cells were grown in RPMI media supplemented with 10% (v/v) fetal calf serum. L6 cells at a seeding density of 2 x 10^4 cells/mL were incubated in microtiter plates overnight at 37 °C and 5 % CO2 until adherent. The following day, test compounds were added to the plates (3-fold serial dilutions), prior to incubation for 69 h. Following incubation, 10 µL of Resazurin (12.5 mg in 100 mL phosphate buffered saline, Aldrich) was added to each well and the plates were incubated for a further 3 h. The plates were read using a SpectraMax (Gemini XS) fluorescence reader at an excitation wavelength of 536 nm and an emission wavelength of 588 nm. EC50 values were determined using SOFTmax Pro 5.2 analysis software. All experiments were conducted as technical replicates, with at least three biological replicates. […]

In assay [3] the test system is T. congolense. Briefly: NMRI mouse efficacy model, T. congolense. The conditions noted are these: for Efficacy at 10 mg/kg SC for 4 days, T. congo / Efficacy, T. congo: mice; for Efficacy at 10 mg/kg SC for 4 days, T. congo: 10 mg/kg SC once daily for 4 days. The assay is classed as in vivo, Trypanosoma congolense. The protocol:
(§1) 3. In vivo efficacy studies
(§2) The T. congolense (IL3000) and T. vivax (ILRAD V34) cell lines7, 8, both originating from Kenya, were used in the following in vivo mouse studies. For studies in cattle, either Trypanosoma congolense (savannah) KONT 2/133, 224) or T. vivax STIB 719 was used.
(§3) 3.1 Mouse efficacy studies for T. brucei brucei.
(§4) Mouse efficacy studies for T. brucei brucei were carried out as previously detailed.9 3.2 NMRI mouse efficacy studies for T. congolense and T. vivax.
(§5) Mouse models of infections were carried out using standardized protocols. Briefly, 1 mL samples of cryopreserved T. congolense, or T. vivax-infected blood harvested directly from an infected mouse, were diluted with Hanks Balanced Salt Solution plus 20 mM glucose (HBSS+G) to 5 x 10^4 trypomastigotes/mL (5 x 105 for T. vivax). Female mice (NMRI) were inoculated IP on day 0 with 0.2 mL/animal (equivalent to ~ 1 x 104 T. congolense or ~ 1 x 105 T. vivax per animal). The level of parasitaemia was inspected microscopically on day 3 using tail blood smears, counting 20 high powered fields (× 400 magnification). For untreated or treated animals whose tail smears exceeded 50 parasites/field, precise parasite levels were established using a Neubauer haemocytometer; mice with a parasite burden over 1 x 108 were promptly and humanely terminated (T. congolense only, from our experience the mice will not survive for a further 24 h). Alternatively, in the case of T. vivax-infected mice the immune system will bring the infection to a sub-lethal level (below limit of detection) […]
(§6) followed by cycles of high and low parasitaemia. Eventually mice infected with T. vivax succumb to the infection between 30 – 60 days post-infection.
(§7) Suppression of parasitaemia - mouse
(§8) On day 3 post-infection, animals were randomly allocated to groups, with 3 mice/group. Infected animals were dosed with one of the following: diaminazene diaceturate IP. – 40 mg/kg once only as a control (early-stage trypanocide used to clear the parasites in the systemic circulation and in tissues other than CNS), compound 1 (SC) at 3, 10, 30 and 50 mg free base/kg twice and once daily for 4 d or a single dose, or compound 2 (SC) at 3 and 10 mg free base /kg once daily for 4 d, once daily for 2 d or a single dose, one group of 3 mice acted as an untreated control group. The dose solutions were prepared daily, using 5% DMSO: 40% PEG400: 55% MilliQ H2O for test compounds and 10% DMSO: 90% peanut oil for standard drugs. Alternatively, compound 2 was delivered for 48 h via SC implanted ALZET osmotic pumps (6, 12, 25 and 50 mg free base/mL, vehicle: 50% DMSO […]
(§9) and 50% deionized water).
(§10) Response to treatment was determined by monitoring parasitaemia twice a week until day 21.
(§11) After day 21, the mice were checked once a week until 63 d post-treatment. Mice surviving to the end of the experiment, and with blood smears clear of parasites, were considered cured. […]
(§12) The parasites were obtained from a donor calf. This isolate is resistant to diminazene (20 mg/kg) and isometamidium (1 mg/kg) in cattle, and diminazene (7 mg/kg) and isometamidium (>1 mg/kg) in mice. Calves were parasitaemic by study day 6. Calves (n = 5) were treated with compound 1 (5 mg/kg, SC, twice 12 h apart) on study

Assay [4] relates to T. vivax. Put plainly: NMRI mouse efficacy model, T. vivax. The following applies: for Efficacy at 10 mg/kg SC for 4 days, T. vivax / Efficacy, T. vivax: mice; for Efficacy at 10 mg/kg SC for 4 days, T. vivax: 10 mg/kg SC once daily for 4 days. The assay is classed as in vivo, Trypanosoma vivax. The protocol:
as §1, §2, §3, §4, §5, §6, §7, §8, §9, §10, §11, §12

What is called EC50 is the concentration that produces a half-maximal response.

Molecules are shown by their SMILES. Entries after “also recorded” stand apart in the source; their conditions may differ.

As to `CNCc1cc(F)c(C(=O)c2sc(N[C@H]3CC[C@H](NS(=O)(=O)CC(C)C)CC3)nc2N)c(F)c1.Cl` [Compound 8, N-((trans)-4-((4-Amino-5-(2,6-difluoro-4-((methylamino)methyl)benzoylthiazol-2-yl)amino)cyclohexyl))-2-methylpropane-1-sulfonamide Hydrochloride], the EC50 in the assay with T. congolense [1] is 1.3 nM; in the assay with T. vivax [2], 0.68 nM; with L6 cells, 15000 nM. Also, in the assay with T. congolense [3], the “Efficacy at 10 mg/kg SC for 4 days, T. congo” value is “Full cure (3/3)”. For the same compound, the “Efficacy at 10 mg/kg SC for 4 days, T. vivax” value in the assay on T. vivax [4] is on record as “Full cure (3/3)”.
As to `CC(C)CS(=O)(=O)N[C@H]1CC[C@H](Nc2nc(N)c(C(=O)c3c(F)cc(CN(C)C)cc3F)s2)CC1` [Compound 2, N-(trans)-[4-[[4-Amino-5-[4-(dimethylaminomethyl)-2,6-difluoro-benzoyl]thiazol-2-yl]amino]cyclohexyl]-2-methyl-propane-1-sulfonamide], the half-maximal effective concentration (EC50) with T. congolense [1] was found to be 3.2 nM; with T. vivax [2] it was 0.08 nM; in the assay on L6 cells, 3600 nM. Besides, the “Efficacy in T. congolense-infected mice, implanted ALZET osmotic pumps” value in the assay on T. congolense [3] (SC pump delivery, all dose levels) is on record as “cured; also recorded: full cure”. In addition, the “Efficacy, T. congo” value in the assay on T. congolense [3] (3 mg/kg (head: SC for 4 days)) was “Partial cure (2/3)”; with T. congolense [3] (10 mg/kg once daily for 2 days), “Partial cure (2/3)”; in the assay with T. congolense [3] (10 mg/kg, regimen not restated, listed after the 3 mg/kg result) it was “Full cure”. Moreover, in the assay with T. congolense [3] (10 mg/kg), the “Efficacy at 10 mg/kg SC for 4 days, T. congo” value is on record as “fully curative; also recorded: Full cure; also recorded: Partial cure (1/3)”. Further, the “Efficacy, T. vivax” value is “Full cure (3/3) 3 and 10 mg/kg for 4 days 10 mg/kg for 2 days; also recorded: Full cure (3/3); 3 and 10 mg/kg for 4 days, 10 mg/kg for 2 days” with T. vivax [4] (3 mg/kg for 4 days, 3 mg/kg); “Full cure (3/3) 3 and 10 mg/kg for 4 days 10 mg/kg for 2 days; also recorded: Full cure (3/3); 3 and 10 mg/kg for 4 days, 10 mg/kg for 2 days” in the assay on T. vivax [4] (10 mg/kg for 2 days, 10 mg/kg). Besides, the “Efficacy at 10 mg/kg SC for 4 days, T. vivax” value with T. vivax [4] (10 mg/kg) was “fully curative; also recorded: Full cure (3/3) 3 and 10 mg/kg for 4 days 10 mg/kg for 2 days; also recorded: Full cure (3/3); 3 and 10 mg/kg for 4 days, 10 mg/kg for 2 days”.
In the case of `CC(C)CS(=O)(=O)N[C@H]1CC[C@H](Nc2nc(N)c(C(=O)c3c(Cl)cccc3Cl)s2)CC1` [Compound 10, N-((trans)-4-((4-Amino-5-(2,6-dichlorobenzoyl)thiazol-2-yl)amino)cyclohexyl)-2-methylpropane-1-sulfonamide], the values for the 50% effective concentration (EC50) in the assay on T. congolense [1], in the assay with T. vivax [2] and with L6 cells were 0.4 nM, 0.47 nM and 3400 nM, respectively. In the assay with T. congolense [3] (3 mg/kg (head: SC for 4 days)), the “Efficacy, T. congo” value is listed as “Full cure (3/3) 3 mg/kg”. The “Efficacy, T. vivax” value in the assay on T. vivax [4] (3 mg/kg for 4 days) is “Full cure (3/3) 3 mg/kg”.
Turning to `CC(C)CS(=O)(=O)N[C@H]1CC[C@H](Nc2nc(N)c(C(=O)c3c(F)cccc3F)s2)CC1` [Compound 1, N-((trans)-4-((4-Amino-5-(2,6-difluorobenzoyl)thiazol-2-yl)amino)cyclohexyl)-2-methylpropane-1-sulfonamide], the EC50 in the assay on T. congolense [1] worked out at 18 nM; in the assay with T. vivax [2], 95 nM. The “Acute T. congolense efficacy in mice” value in the assay with T. congolense [3] (3 mg/kg bid SC for 4 days) is recorded as “Partial cure (2/3)”; in the assay on T. congolense [3] (10 mg/kg bid SC for 4 days), “Full cure”; in the assay on T. congolense [3] (30 mg/kg, single dose, SC), “Partial cure: (2/3)”; in the assay with T. congolense [3] (50 mg/kg single dose, SC) it was “sterile cure; also recorded: Full cure”. For the same compound, the “T. congolense efficacy in mice” value in the assay with T. congolense [3] (10 mg/kg once daily for 4 days, SC) is “sterile cure”. The “Acute T. vivax efficacy in mice” value in the assay on T. vivax [4] (3 mg/kg bid SC for 4 days) was “Full cure”; in the assay on T. vivax [4] (10 mg/kg bid SC for 4 days), “Full cure”; in the assay on T. vivax [4] (10 mg/kg, single dose, SC) it was “Partial cure (1/3)”; in the assay with T. vivax [4] (30 mg/kg, single dose, SC), “sterile cure; also recorded: Full cure”. Further, in the assay with T. vivax [4] (3 mg/kg once daily for 4 days, SC), the “T. vivax efficacy in mice” value was “sterile cure”.
